The values below come from article PMC6747318, “Mutual Enhancement of Opioid and Adrenergic Receptors by Combinations of Opioids and Adrenergic Ligands Is Reflected in Molecular Complementarity of Ligands: Drug Development Possibilities” (International Journal of Molecular Sciences, 2019).

Experiment [1] addresses T1, intact mu opioid receptors (muOPRs) (Homo sapiens, UniProt P35372). Format: binding. Also noted: intact mu opioid receptors (muOPRs); deca-histidine tag (N); made in house; host or cells: E. coli C43 (DE3).
The target of experiment [2] is T2, dopamine D1 receptor (D1DR) 89–98 (Homo sapiens, UniProt P21728).
T2 construct: D1DR 89–98
The experiment in a line: UV spectroscopy binding to receptor peptide D1DR 89–98.
Description: (§1) After the solutions were made, a 96-well quartz crystal plate was prepared to be run through the spectrophotometer at room temperature (ca. 24 °C). […] The absorbance of each receptor peptide without the presence of the adrenergic compound was measured as well. The absorbance of each well was measured at every 10 nm increment from 190 nm to 260 nm. The maximum absorbance that can be measured was set to four. Each well had 200 μL of solution, so if the absorbance of one component was being measured, it was diluted by half with a phosphate buffer.
(§2) If the measured absorbance is different than the additive absorbance of each compound, then that indicates some sort of molecular interaction. The binding can be quantified by graphing the difference in absorbance against the concentration of the compound varied to provide a binding curve. The data are analyzed by finding the additive absorbance and plotting the difference between this absorbance and the actual absorbance against the concentration of the adrenergic compound. The absorbance for the phosphate buffer is subtracted for each well before any calculations are done. […] The binding constants were estimated from the half-saturation point.

The nature of experiment [3]: UV spectroscopy binding between compounds: binding to methadone. The following applies: pH 7.4 sodium phosphate buffer, read-out: Kd @ 200 nm, binding to Meth.
The nature of experiment [4]: UV spectroscopy binding between compounds: binding to ascorbic acid. The following applies: read-out: Kd @ 200 nm, binding to Asc, pH 7.4 sodium phosphate buffer.
Experiment [5] has as its target T3, dopamine D1 receptor (D1DR) 170–188 (Homo sapiens, UniProt P21728).
T3 construct: D1DR 170–188
The experiment is described as follows: UV spectroscopy binding to receptor peptide D1DR 170–188.
Description: as §1, §2

Experiment [6] can be described thus: UV spectroscopy binding between compounds: binding to morphine sulfate.
In the next experiment the target is methionine-enkephalin (Homo sapiens, UniProt P01210). The experiment is described as follows: UV spectroscopy binding between compounds: binding to methionine-enkephalin. Also noted: M-Enk = methionine-enkephalin; purchased Sigma-Aldrich.
Experiment [7] can be described thus: UV spectroscopy binding between compounds: binding to amphetamine. The following applies: read-out: Kd @ 200 nm, binding to Amph; UV spectroscopy, pH 7.4 sodium phosphate buffer; single binding constant.
The target of experiment [8] is T4, beta 2 adrenergic receptor (B2AR) 97–103 (Homo sapiens, UniProt P07550).
T4 construct: B2AR 97–103
The experiment is described as follows: UV spectroscopy binding to receptor peptide B2AR 97–103.
Description: as §1, §2

Experiment [9] is described as follows: UV spectroscopy binding between compounds: binding to riboflavin. The following applies: pH 7.4 sodium phosphate buffer, read-out: Kd @ 200 nm, binding to Ribo.
Experiment [10] can be described thus: UV spectroscopy binding between compounds: binding to naloxone. The following applies: pH 7.4 sodium phosphate buffer, read-out: Kd @ 200 nm, binding to NAL.
A short description of experiment [11]: UV spectroscopy binding between compounds: binding to propranolol.
Experiment [12] addresses T5, beta 2 adrenergic receptor (B2AR) 175–188 (Homo sapiens, UniProt P07550).
T5 construct: B2AR 175–188
The experiment is described as follows: UV spectroscopy binding to receptor peptide B2AR 175–188.
Description: as §1, §2

A short description of experiment [13]: UV spectroscopy binding between compounds: binding to glucose. The following applies: read-out: Kd @ 200 nm, binding to Glucose, pH 7.4 sodium phosphate buffer.
Experiment [14] has as its target T6, insulin receptor (INSR) 281–299 (Homo sapiens, UniProt P06213).
T6 construct: INSR 281–299
The experiment in a line: UV spectroscopy binding to control peptide INSR 281–299. The following applies: control sequence; read-out: Kd @ 200 nm, INSR 281–299.
Description: as §1, §2

Experiment [15] concerns the target T7, insulin receptor (INSR) 157–166 (Homo sapiens, UniProt P06213).
T7 construct: INSR 157–166
The experiment in a line: UV spectroscopy binding to control peptide INSR 157–166. The following applies: control sequence; read-out: Kd @ 200 nm, INSR 157–166.
Description: as §1, §2

The target in experiment [16] is mu opioid receptor (muOPR) peptide 38–51 (Homo sapiens, UniProt P35372).
Description: as §1, §2
Experiment [17] deals with T1, intact mu opioid receptors (muOPRs). The following applies: cited from earlier work.
In experiment [18] the target is histamine type 1 receptor (H1HR) 77–87 (Homo sapiens, UniProt P35367). The following applies: single binding constant; read-out: Kd @ 200 nm, H1HR 77–87.
Description: as §1, §2
[19] abbreviates: read-out: Kd @ 200 nm, binding to Morph, UV spectroscopy, pH 7.4 sodium phosphate buffer, single binding constant.
Where [20] appears, read: Kd @ 200 nm, binding to M-Enk, UV spectroscopy, pH 7.4 sodium phosphate buffer, single binding constant.
Setting [21] is: read-out: Kd @ 200 nm, binding to Prop, UV spectroscopy, pH 7.4 sodium phosphate buffer, single binding constant.
[22] abbreviates: read-out: Kd @ 200 nm, B2AR 97–103.
Setting [23] is: single binding constant, read-out: Kd @ 200 nm, B2AR 175–188.

Counter-ions that a name gives are not always drawn. Like-named read-outs stand apart in the source and are kept apart here.

A word on the Kd: it is the equilibrium constant for the complex coming apart.

T1 sequence (P35372 whole entry): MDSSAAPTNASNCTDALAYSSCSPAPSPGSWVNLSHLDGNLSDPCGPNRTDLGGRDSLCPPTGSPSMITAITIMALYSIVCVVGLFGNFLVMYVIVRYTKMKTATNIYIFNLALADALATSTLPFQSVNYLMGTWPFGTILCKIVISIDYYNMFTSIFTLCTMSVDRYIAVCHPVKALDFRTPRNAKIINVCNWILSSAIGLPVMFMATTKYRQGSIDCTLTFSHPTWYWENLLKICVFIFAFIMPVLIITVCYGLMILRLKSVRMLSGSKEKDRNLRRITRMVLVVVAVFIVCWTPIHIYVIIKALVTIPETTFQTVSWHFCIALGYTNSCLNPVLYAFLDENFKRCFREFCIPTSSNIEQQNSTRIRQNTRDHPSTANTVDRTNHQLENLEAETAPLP

As for `CC(=O)OCC[N+](C)(C)C` [Acetylcholine], the “ligand binding to intact muOPRs” value in [1] is reported as “no observable bind”. Further, the Kd is above 1000 µM in experiment [2]; above 1000 µM in experiment [3]; above 1000 µM in [4]; above 1000 µM in experiment [5]; above 1000 µM in experiment [6] (setting [19]); 80 µM on methionine-enkephalin (setting [20]). Moreover, the dissociation constant (Kd) in experiment [7], in experiment [8], in experiment [9], in [10], in experiment [11] (setting [21]) and in [12] was above 1000 µM in each case. In addition, in experiment [13], the dissociation constant (Kd) was above 1000 µM.

On to `CNC[C@H](O)c1ccc(O)c(O)c1` [Epinephrine HCl], for which the Kd in experiment [14] is 200 µM; in experiment [15], above 1000 µM; in [3] it was 300 µM; in [4], 90 µM; in experiment [6] (read-out: Kd @ 200 nm, binding to Morph, high affinity binding, double curve, first value) it was 0.3 µM; in [6] (read-out: Kd @ 200 nm, binding to Morph, low affinity binding, double curve, second value), 40 µM. Moreover, the Kd at methionine-enkephalin (Kd @ 200 nm, binding to M-Enk, high affinity binding, double curve, first value) was 5.8 µM; at methionine-enkephalin (read-out: Kd @ 200 nm, binding to M-Enk, low affinity binding, double curve, second value), 40 µM; in experiment [7] it was 4.5 µM; in experiment [9] it was above 1000 µM; in [10], 100 µM; in [11] (read-out: Kd @ 200 nm, binding to Prop, high affinity binding, double curve, first value), 45 µM. Further, the Kd was 1000 µM in experiment [11] (read-out: Kd @ 200 nm, binding to Prop, low affinity binding, double curve, second value) and above 1000 µM in [13]. The “ligand binding to intact muOPRs” value in experiment [1] was “bound at mid-micromolar concentrations”.

For `NCCc1c[nH]cn1` [Histamine], the Kd in experiment [14] was above 1000 µM; in experiment [15] it was 110 µM; in [3], above 1000 µM; in [4], above 1000 µM; in experiment [6] (setting [19]), above 1000 µM; on methionine-enkephalin (setting [20]) it was above 1000 µM. The Kd in experiment [7] was 70 µM; in experiment [8] (setting [22]), above 1000 µM; in [9] it was above 1000 µM; in experiment [10], 210 µM; in experiment [11] (setting [21]), 110 µM; in [12] (setting [23]) it was above 1000 µM. In experiment [13], the Kd is above 1000 µM. Further, in [16], the “binding to Mu 38–51” value is “no binding”. The “binding to intact muOPRs” value in experiment [17] is recorded as “does not bind”.

Take `NCCc1c[nH]c2ccc(O)cc12` [Serotonin]: the Kd in experiment [14] is 900 µM; in experiment [15], 110 µM; in experiment [3] it was 45 µM; in experiment [4] it was above 1000 µM; in experiment [6] (setting [19]), 0.7 µM; on methionine-enkephalin (setting [20]), 45 µM. In addition, the dissociation constant (Kd) was 75 µM in experiment [18]; above 1000 µM in experiment [7]; 120 µM in experiment [8] (setting [22]); 7 µM in experiment [9]; 60 µM in [10]; 100 µM in experiment [11] (setting [21]). Besides, the dissociation constant Kd in experiment [12] (setting [23]) and in [13] was above 1000 µM each time.
